Measurements: ChEMBL document CHEMBL1146119, “Amino functionalized novel cholic acid derivatives induce HIV-1 replication and syncytia formation in T cells” (J Med Chem, 2006)
The source made the active and inactive calls. The rule behind the calls is not given here.

The compounds below were run on Human immunodeficiency virus 1 (assay: Induction of HIV1 NL4-3 virus replication in CEM-GFP cells).
Format: functional, organism-based

SMILES | Activity
C[C@H](CCC(=O)O)[C@H]1CC[C@H]2[C@@H]3[C@H](O)C[C@@H]4C[C@H](O)CC[C@]4(C)[C@H]3C[C@H](O)[C@]12C | inactive
COC(=O)CC[C@@H](C)[C@H]1CC[C@H]2[C@H]3[C@H]([C@H](N)C(=O)[C@]12C)[C@@]1(C)CC[C@@H](OC(C)=O)C[C@H]1C[C@H]3OC(C)=O | Active
COC(=O)CC[C@@H](C)[C@H]1CC[C@H]2[C@@H]3[C@H](OC(C)=O)C[C@@H]4C[C@H](OC(C)=O)CC[C@]4(C)[C@H]3C[C@H](O)[C@]12C | inactive
COC(=O)CC[C@@H](C)[C@H]1CC[C@H]2[C@H]3[C@H]([C@H](N)[C@H](O)[C@]12C)[C@@]1(C)CC[C@@H](OC(C)=O)C[C@H]1C[C@H]3OC(C)=O | Active
COC(=O)CC[C@@H](C)[C@H]1CC[C@H]2[C@H]3C(=C(N)C(=O)[C@]12C)[C@@]1(C)CC[C@@H](OC(C)=O)C[C@H]1C[C@H]3OC(C)=O | Active
COC(=O)CC[C@@H](C)[C@H]1CC[C@H]2[C@H]3[C@H]([C@H](N=[N+]=[N-])C(=O)[C@]12C)[C@@]1(C)CC[C@@H](OC(C)=O)C[C@H]1C[C@H]3OC(C)=O | Active
COC(=O)CC[C@@H](C)[C@H]1CC[C@H]2[C@H]3[C@H]([C@@H](N)[C@@H](O)[C@]12C)[C@@]1(C)CC[C@@H](OC(C)=O)C[C@H]1C[C@H]3OC(C)=O | Active
COC(=O)CC[C@@H](C)[C@H]1CC[C@H]2[C@H]3[C@H]([C@@H](N=[N+]=[N-])C(=O)[C@]12C)[C@@]1(C)CC[C@@H](OC(C)=O)C[C@H]1C[C@H]3OC(C)=O | Active
